Patent publication US20230040770A1, “HETEROCYCLIC COMPOUND AND USE THEREOF” (TAKEDA PHARMACEUTICAL COMPANY LIMITED, priority 2019, published 2023)

The compounds below were run against T1, human orexin type 2 receptor (Homo sapiens, UniProt O43614) (assay: Measurement of orexin type 2 receptor agonist activity (calcium indicator fluorescence, CHO cells forcibly expressing human OX2 receptor)). Details: compound at 3 μM; 0% = DMSO, 100% = orexin A (human) 10 nM.
T1 construct: expressed in transfected cells
T1 sequence (O43614 1-444): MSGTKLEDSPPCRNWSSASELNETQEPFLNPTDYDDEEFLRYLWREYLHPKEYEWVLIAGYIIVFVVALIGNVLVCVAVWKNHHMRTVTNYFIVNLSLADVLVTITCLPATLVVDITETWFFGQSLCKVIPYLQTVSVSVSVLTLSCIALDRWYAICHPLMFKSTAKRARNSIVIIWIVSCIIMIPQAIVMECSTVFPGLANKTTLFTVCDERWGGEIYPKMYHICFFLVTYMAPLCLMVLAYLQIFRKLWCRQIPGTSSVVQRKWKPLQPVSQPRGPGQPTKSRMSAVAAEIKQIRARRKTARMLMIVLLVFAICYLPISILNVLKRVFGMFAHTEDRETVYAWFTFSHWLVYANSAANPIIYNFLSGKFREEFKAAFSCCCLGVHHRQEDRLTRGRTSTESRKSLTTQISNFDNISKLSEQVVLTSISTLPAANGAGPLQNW
Assay type: cell-based
Source text: To obtain a cell clone stably expressing human orexin type 2 receptor, human orexin type 2 receptor cDNA was inserted into pcDNA3.1(+) plasmid vector (Invitrogen), and a plasmid DNA for expression of human orexin type 2 receptor (pcDNA3.1(+)/hOX2R) was cloned. The plasmid DNA was introduced into CHO-dhfr cell by an electroporation method, and human orexin type 2 receptor expressing clone cells were obtained by limiting dilution method by using G418 drug resistance as a selection marker.
CHO cells forcibly expressing human OX2 receptor were seeded in each well of 384 well black transparent bottom plate (BD Falcon) at 7,500 cells/well, and cultured for one day in a 5% CO2 incubator at 37° C. After removal of the medium in the cell plate, assay buffer A containing a calcium indicator (HBSS (Thermo Fisher Scientific), 20 mM HEPES (Thermo Fisher Scientific), 0.1% BSA (Sigma-Aldrich), 2.5 μg/mL Fluo-4 AM (DOJINDO Chemical), 0.08% Pluronic F127 (DOJINDO Chemical), 1.25 mM probenecid (DOJINDO Chemical)) was added at 30 μL/well. The plate was stood for 30 min in a 5% CO2 incubator at 37° C., and further stood at room temperature for 30 min. A test compound prepared by diluting with assay buffer B (HBSS, 20 mM HEPES, 0.1% BSA) was added at 10 μL/well, and the fluorescence value was measured by FDSSμCELL (Hamamatsu Photonics K.K.) every one sec for 1 min, and thereafter every two sec for […]. The activity (%) of the test compound was calculated assuming that variation in the fluorescence value when DMSO was added instead of the test compound was 0%, and variation in the fluorescence value when orexin A (human) (PEPTIDE INSTITUTE, INC.) was added at the final concentration of 10 nM was 100%.

SMILES	OX2R agonist activity (3 μM, %) [%]
CC(C)C(=O)N1CC(F)(F)[C@H](NS(=O)(=O)C2CC2)[C@@H]1Cc1cccc(-c2cc(F)cc(F)c2)c1F [Example 166]	98
CC(C)C(=O)N1CC(F)(F)[C@H](NS(=O)(=O)C2CC2)[C@@H]1Cc1cccc(-c2ccccc2)c1F [Example 171, N-[(2S,3R)-4,4-difluoro-2-[(2-fluoro[1,1′-biphenyl]-3-yl)methyl]-1-(2-methylpropanoyl)pyrrolidin-3-yl]cyclopropanesulfonamide]	99
CCS(=O)(=O)N[C@@H]1[C@H](Cc2cccc(-c3cccc(F)c3F)c2)N(C(=O)C2CCO2)CC1(F)F (stereo partly drawn) [Example 174, N -[(2S,3R)-2-[(2′,3′-difluoro[1,1′-biphenyl]-3-yl)methyl]-4,4-difluoro-1-(oxetane-2-carbonyl)pyrrolidin-3-yl]ethanesulfonamide]	90
CCS(=O)(=O)N[C@@H]1[C@H](Cc2cccc(-c3cccc(F)c3F)c2)N(C(=O)C2CCO2)CC1(F)F (stereo partly drawn) [Example 175, N-[(2S,3R)-2-[(2′,3′-difluoro[1,1′-biphenyl]-3-yl)methyl]-4,4-difluoro-1-(oxetane-2-carbonyl)pyrrolidin-3-yl]ethanesulfonamide]	95
CCS(=O)(=O)N[C@@H]1[C@H](Cc2cccc(-c3cccc(F)c3F)c2F)N(C(=O)C2CC2)CC1(F)F [Example 204, N-{(2S,3R)-1-(cyclopropanecarbonyl)-4,4-difluoro-2-[(2,2′,3′-trifluoro[1,1′-biphenyl]-3-yl)methyl]pyrrolidin-3-yl}ethanesulfonamide]	89
CCS(=O)(=O)N[C@@H]1[C@H](Cc2cccc(-c3ccccc3)c2F)N(C(=O)C2CC2)CC1(F)F [Example 205, N-{(2S,3R)-1-(cyclopropanecarbonyl)-4,4-difluoro-2-[(2-fluoro[1,1′-biphenyl]-3-yl)methyl]pyrrolidin-3-yl}ethanesulfonamide]	91
CCS(=O)(=O)N[C@H]1[C@@H](F)CN(C(=O)C(C)(C)O)[C@H]1Cc1cccc(-c2cccc(F)c2F)c1F [Example 222, N-{(2S,3R,4S)-4-fluoro-1-(2-hydroxy-2-methylpropanoyl)-2-[(2,2′,3′-trifluoro[1,1′-biphenyl]-3-yl)methyl]pyrrolidin-3-yl}ethanesulfonamide]	97
CCS(=O)(=O)N[C@@H]1[C@H](Cc2cccc(-c3ccccc3)c2F)N(C(=O)N2CCC2)CC1(F)F [Example 228, N-{(2S,3R)-1-(azetidine-1-carbonyl)-4,4-difluoro-2-[(2-fluoro[1,1′-biphenyl]-3-yl)methyl]pyrrolidin-3-yl}ethanesulfonamide]	99
CS(=O)(=O)N[C@@H]1[C@H](Cc2cccc(-c3cc(F)cc(Cl)c3)c2F)N(C(=O)C2CC2)CC1(F)F [Example 245, N-[(2S,3R)-2-[(3′-chloro-2,5′-difluoro[1,1′-biphenyl]-3-yl)methyl]-1-(cyclopropanecarbonyl)-4,4-difluoropyrrolidin-3-yl]methanesulfonamide]	94
CCS(=O)(=O)N[C@@H]1[C@H](Cc2cccc(-c3cc(F)cc(Cl)c3)c2F)N(C(=O)C2CC2)CC1(F)F [Example 248, N-[(2S,3R)-2-[(3′-chloro-2,5′-difluoro[1,1′-biphenyl]-3-yl)methyl]-1-(cyclopropanecarbonyl)-4,4-difluoropyrrolidin-3-yl]ethanesulfonamide]	90

The remaining lines, values ahead:

OX2R agonist activity (3 μM, %) [%]	SMILES
105	CC(C)C(=O)N1CC(F)(F)[C@H](NS(=O)(=O)C2CC2)[C@@H]1Cc1cccc(-c2cccc(F)c2)c1F [Example 163, N-[(2S,3R)-2-[(2,3′-difluoro[1,1′-biphenyl]-3-yl)methyl]-4,4-difluoro-1-(2-methylpropanoyl)pyrrolidin-3-yl]cyclopropanesulfonamide]
94	CCS(=O)(=O)N[C@@H]1[C@H](Cc2cccc(-c3cccc(F)c3)c2F)N(C(=O)C2CC2)CC1(F)F [Example 202, N-{(2S,3R)-1-(cyclopropanecarbonyl)-2-[(2,3′-difluoro[1,1′-biphenyl]-3-yl)methyl]-4,4-difluoropyrrolidin-3-yl}ethanesulfonamide]
88	CCS(=O)(=O)N[C@H]1[C@@H](F)CN(C(=O)C(C)(C)O)[C@H]1Cc1cccc(-c2cccc(F)c2)c1F [Example 207, N-[(2S,3R,4S)-2-[(2,3′-difluoro[1,1′-biphenyl]-3-yl)methyl]-4-fluoro-1-(2-hydroxy-2-methylpropanoyl)pyrrolidin-3-yl]ethanesulfonamide]
95	CCS(=O)(=O)N[C@H]1[C@@H](F)CN(C(=O)N(C)C)[C@H]1Cc1cccc(-c2cccc(F)c2)c1F [Example 210, (2S,3R,4S)-2-[(2,3′-difluoro[1,1′-biphenyl]-3-yl)methyl]-3-[(ethanesulfonyl)amino]-4-fluoro-N,N-dimethylpyrrolidine-1-carboxamide]
94	CCS(=O)(=O)N[C@H]1[C@@H](F)CN(C(=O)N2CCC2)[C@H]1Cc1cccc(-c2cccc(F)c2)c1F [Example 211, N-{(2S,3R,4S)-1-(azetidine-1-carbonyl)-2-[(2,3′-difluoro[1,1′-biphenyl]-3-yl)methyl]-4-fluoropyrrolidin-3-yl}ethanesulfonamide]
96	CCS(=O)(=O)N[C@H]1[C@@H](F)CN(C(=O)C2CC2)[C@H]1Cc1cccc(-c2cccc(F)c2)c1F [Example 212, N-{(2S,3R,4S)-1-(cyclopropanecarbonyl)-2-[(2,3′-difluoro[1,1′-biphenyl]-3-yl)methyl]-4-fluoropyrrolidin-3-yl}ethanesulfonamide]
95	CCS(=O)(=O)N[C@H]1[C@@H](F)CN(C(=O)C2CCO2)[C@H]1Cc1cccc(-c2cccc(F)c2)c1F (stereo partly drawn) [Example 216, N-[(2S,3R,4S)-2-[(2,3′-difluoro[1,1′-biphenyl]-3-yl)methyl]-4-fluoro-1-(oxetane-2-carbonyl)pyrrolidin-3-yl]ethanesulfonamide]
96	CCS(=O)(=O)N[C@H]1[C@@H](F)CN(C(=O)C2CCO2)[C@H]1Cc1cccc(-c2cccc(F)c2)c1F (stereo partly drawn) [Example 217, N-[(2S,3R,4S)-2-[(2,3′-difluoro[1,1′-biphenyl]-3-yl)methyl]-4-fluoro-1-(oxetane-2-carbonyl)pyrrolidin-3-yl]ethanesulfonamide]
90	CCS(=O)(=O)N[C@H]1[C@@H](F)CN(C(=O)C(C)(C)O)[C@H]1Cc1cccc(-c2cc(F)cc(F)c2)c1F [Example 220, N-{(2S,3R,4S)-4-fluoro-1-(2-hydroxy-2-methylpropanoyl)-2-[(2,3′,5′-trifluoro[1,1′-biphenyl]-3-yl)methyl]pyrrolidin-3-yl}ethanesulfonamide]
100	CCS(=O)(=O)N[C@@H]1[C@H](Cc2cccc(-c3cccc(F)c3)c2F)N(C(=O)[C@H]2C[C@@H](F)C2)CC1(F)F [Example 226, N-[(2S,3R)-2-[(2,3′-difluoro[1,1′-biphenyl]-3-yl)methyl]-4,4-difluoro-1-((1s,3R)-3-fluorocyclobutane-1-carbonyl)pyrrolidin-3-yl]ethanesulfonamide]
95	CS(=O)(=O)N[C@H]1[C@@H](F)CN(C(=O)C23CC(C2)C3)[C@H]1Cc1cccc(-c2cccc(F)c2)c1F [Example 231, N-{(2S,3R,4S)-1-(bicyclo[1.1.1]pentane-1-carbonyl)-2-[(2,3′-difluoro[1,1′-biphenyl]-3-yl)methyl]-4-fluoropyrrolidin-3-yl}methanesulfonamide]
98	CCS(=O)(=O)N[C@H]1[C@@H](F)CN(C(=O)C2CC2)[C@H]1Cc1cccc(-c2cc(F)ccc2F)c1F [Example 238, N-{(2S,3R,4S)-1-(cyclopropanecarbonyl)-4-fluoro-2-[(2,2′,5′-trifluoro[1,1′-biphenyl]-3-yl)methyl]pyrrolidin-3-yl}ethanesulfonamide]
102	CCS(=O)(=O)N[C@H]1[C@@H](F)CN(C(=O)C2CC2)[C@H]1Cc1cccc(-c2ccccc2)c1F [Example 239, N-{(2S,3R,4S)-1-(cyclopropanecarbonyl)-4-fluoro-2-[(2-fluoro[1,1′-biphenyl]-3-yl)methyl]pyrrolidin-3-yl}ethanesulfonamide]
